Data published in ChEMBL document CHEMBL2406977, “The discovery of PLK4 inhibitors: (E)-3-((1H-Indazol-6-yl)methylene)indolin-2-ones as novel antiproliferative agents” (J Med Chem, 2013).

What was measured:
MDA-MB-231 = assay: Antiproliferative activity against human MDA-MB-231 cells assessed as growth inhibition after 5 days by SRB assay; assay type: functional; conditions: MDA-MB-231, 120 h
[1] = biological target: Serine/threonine-protein kinase PLK1 (Homo sapiens, UniProt P53350); assay: Inhibition of PLK1 (unknown origin) by FRET-based homogeneous assay
Sequence of Serine/threonine-protein kinase PLK1 (P53350 whole entry): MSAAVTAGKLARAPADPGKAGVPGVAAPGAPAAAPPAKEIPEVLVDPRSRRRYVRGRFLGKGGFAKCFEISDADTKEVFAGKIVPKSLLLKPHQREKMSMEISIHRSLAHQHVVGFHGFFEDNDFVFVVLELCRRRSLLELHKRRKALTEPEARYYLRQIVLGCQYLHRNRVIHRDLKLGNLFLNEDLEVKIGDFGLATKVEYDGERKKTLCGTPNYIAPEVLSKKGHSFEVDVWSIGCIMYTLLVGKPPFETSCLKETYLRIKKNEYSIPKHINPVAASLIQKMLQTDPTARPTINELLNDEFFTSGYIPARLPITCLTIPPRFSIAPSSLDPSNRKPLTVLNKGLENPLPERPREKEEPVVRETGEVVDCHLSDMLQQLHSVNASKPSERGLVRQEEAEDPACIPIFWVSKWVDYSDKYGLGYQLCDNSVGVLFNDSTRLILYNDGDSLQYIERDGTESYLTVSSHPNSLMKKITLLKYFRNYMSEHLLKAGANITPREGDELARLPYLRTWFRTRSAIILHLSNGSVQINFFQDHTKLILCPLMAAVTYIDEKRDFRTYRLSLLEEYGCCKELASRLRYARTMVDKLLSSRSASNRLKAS

MCF7 = assay: Antiproliferative activity against human MCF7 cells assessed as growth inhibition after 5 days by SRB assay; assay type: functional; conditions: MCF7, 120 h
[2] = biological target: Serine/threonine-protein kinase PLK3 (Homo sapiens, UniProt Q9H4B4); assay: Inhibition of PLK3 (unknown origin) by FRET-based homogeneous assay
Sequence of Serine/threonine-protein kinase PLK3 (Q9H4B4 whole entry, the tested form may be a part): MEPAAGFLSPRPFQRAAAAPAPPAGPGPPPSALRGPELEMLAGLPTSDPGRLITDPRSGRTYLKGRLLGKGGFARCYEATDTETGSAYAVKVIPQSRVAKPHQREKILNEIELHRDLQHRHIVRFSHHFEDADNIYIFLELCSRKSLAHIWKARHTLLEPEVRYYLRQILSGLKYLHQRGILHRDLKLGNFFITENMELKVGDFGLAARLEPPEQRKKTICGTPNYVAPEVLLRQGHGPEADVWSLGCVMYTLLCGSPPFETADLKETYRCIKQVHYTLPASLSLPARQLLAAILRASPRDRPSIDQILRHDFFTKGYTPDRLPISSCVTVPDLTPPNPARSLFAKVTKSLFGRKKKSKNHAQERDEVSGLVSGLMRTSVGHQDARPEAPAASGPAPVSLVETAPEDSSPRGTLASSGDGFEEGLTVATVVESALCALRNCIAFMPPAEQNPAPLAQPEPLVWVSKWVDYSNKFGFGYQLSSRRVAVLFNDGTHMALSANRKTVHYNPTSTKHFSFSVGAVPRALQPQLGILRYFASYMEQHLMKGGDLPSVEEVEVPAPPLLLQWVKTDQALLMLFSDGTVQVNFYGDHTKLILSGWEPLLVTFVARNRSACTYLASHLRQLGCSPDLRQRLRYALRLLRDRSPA

[3] = biological target: T1, Serine/threonine-protein kinase PLK4 (Homo sapiens, UniProt O00444); assay: Inhibition of N-terminal GST-tagged human PLK4 (1 to 391 amino acids) expressed in Escherichia coli using TMB as substrate after 30 mins by indirect ELISA assay
T1 sequence (O00444 whole entry): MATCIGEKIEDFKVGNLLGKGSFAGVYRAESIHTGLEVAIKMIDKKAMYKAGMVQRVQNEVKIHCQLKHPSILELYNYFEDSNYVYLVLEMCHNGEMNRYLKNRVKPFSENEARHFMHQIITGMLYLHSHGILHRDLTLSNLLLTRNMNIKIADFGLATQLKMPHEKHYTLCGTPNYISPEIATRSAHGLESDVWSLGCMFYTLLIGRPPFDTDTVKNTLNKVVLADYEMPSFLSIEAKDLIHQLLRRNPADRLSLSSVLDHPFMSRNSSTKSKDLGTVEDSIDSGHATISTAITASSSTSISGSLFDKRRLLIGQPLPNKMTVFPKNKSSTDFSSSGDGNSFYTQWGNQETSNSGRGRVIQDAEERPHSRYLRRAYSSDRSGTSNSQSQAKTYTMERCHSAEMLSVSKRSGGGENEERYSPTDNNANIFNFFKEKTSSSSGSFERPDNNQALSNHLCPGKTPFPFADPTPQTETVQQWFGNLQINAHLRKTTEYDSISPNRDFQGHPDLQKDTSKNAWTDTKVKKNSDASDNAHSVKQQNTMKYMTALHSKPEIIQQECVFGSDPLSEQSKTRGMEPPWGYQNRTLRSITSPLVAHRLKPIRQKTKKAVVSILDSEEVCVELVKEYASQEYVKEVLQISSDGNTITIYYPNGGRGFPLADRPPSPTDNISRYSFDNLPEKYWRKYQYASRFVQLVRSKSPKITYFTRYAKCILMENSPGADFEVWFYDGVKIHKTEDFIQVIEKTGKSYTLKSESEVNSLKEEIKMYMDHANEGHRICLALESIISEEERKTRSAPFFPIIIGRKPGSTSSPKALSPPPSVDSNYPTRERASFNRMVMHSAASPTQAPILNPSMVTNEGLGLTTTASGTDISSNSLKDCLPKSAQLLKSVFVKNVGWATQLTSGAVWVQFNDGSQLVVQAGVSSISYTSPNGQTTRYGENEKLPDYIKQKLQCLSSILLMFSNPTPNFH

[4] = biological target: Serine/threonine-protein kinase PLK2 (Homo sapiens, UniProt Q9NYY3); assay: Inhibition of PLK2 (unknown origin) by FRET-based homogeneous assay
Sequence of Serine/threonine-protein kinase PLK2 (Q9NYY3 whole entry): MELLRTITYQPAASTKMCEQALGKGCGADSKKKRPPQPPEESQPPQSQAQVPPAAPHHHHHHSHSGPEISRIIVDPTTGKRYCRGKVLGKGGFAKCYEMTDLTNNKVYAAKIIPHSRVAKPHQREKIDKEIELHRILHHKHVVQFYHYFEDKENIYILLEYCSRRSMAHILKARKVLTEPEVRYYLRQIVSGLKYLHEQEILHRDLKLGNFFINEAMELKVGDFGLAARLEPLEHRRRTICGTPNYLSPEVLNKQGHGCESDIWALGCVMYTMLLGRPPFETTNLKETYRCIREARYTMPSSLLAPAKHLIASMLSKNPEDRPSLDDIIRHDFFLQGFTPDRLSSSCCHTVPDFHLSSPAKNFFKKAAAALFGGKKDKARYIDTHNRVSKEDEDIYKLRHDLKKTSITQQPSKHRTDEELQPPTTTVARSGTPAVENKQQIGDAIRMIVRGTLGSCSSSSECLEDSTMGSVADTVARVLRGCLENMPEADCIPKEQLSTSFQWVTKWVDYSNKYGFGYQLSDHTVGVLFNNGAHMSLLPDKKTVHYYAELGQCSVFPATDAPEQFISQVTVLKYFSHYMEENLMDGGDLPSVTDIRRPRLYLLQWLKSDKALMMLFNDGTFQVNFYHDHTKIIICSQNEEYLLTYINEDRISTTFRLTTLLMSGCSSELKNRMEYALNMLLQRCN

HCC1954 = assay: Antiproliferative activity against human HCC1954 cells assessed as growth inhibition after 5 days by SRB assay; assay type: functional; conditions: HCC1954, 120 h
MDA-MB-468 = assay: Antiproliferative activity against human MDA-MB-468 cells assessed as growth inhibition after 5 days by SRB assay; assay type: functional; conditions: MDA-MB-468, 120 h
SK-BR-3 = assay: Antiproliferative activity against human SKBR3 cells assessed as growth inhibition after 5 days by SRB assay; assay type: functional; conditions: SK-BR-3, 120 h
[5] = Permeability of the compound at pH 7.4 by PAMPA; assay type: ADME; conditions: read-out: permeability

O=C1Nc2ccccc2/C1=C\c1ccc2c(/C=C/c3ccccn3)n[nH]c2c1
GI50 (MDA-MB-231): 8.1 µM | IC50 [1]: > 10 µM | GI50 (MCF7): 1700 nM | IC50 [2]: > 10 µM | IC50 [3]: 13 nM | IC50 [4]: > 10 µM | GI50 (HCC1954): 30 µM | GI50 (MDA-MB-468): 780 nM | GI50 (SK-BR-3): 1.2 µM

O=C1Nc2ccccc2/C1=C\c1ccc2c(/C=C/c3cccnc3)n[nH]c2c1
GI50 (MDA-MB-231): > 50 µM | IC50 [1]: > 10 µM | GI50 (MCF7): 280 nM | IC50 [2]: > 10 µM | IC50 [3]: 2 nM | IC50 [4]: > 10 µM | GI50 (HCC1954): 12 µM | GI50 (MDA-MB-468): 290 nM | GI50 (SK-BR-3): > 50 µM

CCc1ccc2c(c1)/C(=C\c1ccc3c(/C=C/c4cccnc4)n[nH]c3c1)C(=O)N2
GI50 (MDA-MB-231): > 50 µM | IC50 [1]: > 10 µM | GI50 (MCF7): 1700 nM | IC50 [2]: > 10 µM | IC50 [3]: 1.6 nM | IC50 [4]: > 10 µM | GI50 (HCC1954): 33 µM | GI50 (MDA-MB-468): 90 nM | GI50 (SK-BR-3): 13 µM

COc1ccc2c(c1)/C(=C\c1ccc3c(/C=C/c4cccnc4)n[nH]c3c1)C(=O)N2
GI50 (MDA-MB-231): > 50 µM | IC50 [1]: > 10 µM | GI50 (MCF7): 120 nM | IC50 [2]: > 10 µM | IC50 [3]: 0.48 nM | IC50 [4]: > 10 µM | GI50 (HCC1954): > 50 µM | GI50 (MDA-MB-468): 190 nM | GI50 (SK-BR-3): 4.6 µM

O=C1Nc2ccc(Cl)cc2/C1=C\c1ccc2c(/C=C/c3ccncc3)n[nH]c2c1
GI50 (MDA-MB-231): > 50 µM | IC50 [1]: > 10 µM | GI50 (MCF7): 160 nM | IC50 [2]: > 10 µM | IC50 [3]: 2.3 nM | IC50 [4]: > 10 µM | GI50 (HCC1954): > 50 µM | GI50 (MDA-MB-468): 320 nM | GI50 (SK-BR-3): > 50 µM

Cc1ccc2c(c1)/C(=C\c1ccc3c(/C=C/c4ccncc4)n[nH]c3c1)C(=O)N2
GI50 (MDA-MB-231): 5 µM | IC50 [1]: > 10 µM | GI50 (MCF7): 70 nM | IC50 [2]: > 10 µM | IC50 [3]: 1.4 nM | IC50 [4]: > 10 µM | GI50 (HCC1954): 13 µM | GI50 (MDA-MB-468): 120 nM | GI50 (SK-BR-3): > 50 µM

COc1ccc2c(c1)/C(=C\c1ccc3c(/C=C/c4ccncc4)n[nH]c3c1)C(=O)N2
GI50 (MDA-MB-231): 21 µM | IC50 [1]: > 10 µM | GI50 (MCF7): 40 nM | IC50 [2]: > 10 µM | IC50 [3]: 0.45 nM | IC50 [4]: > 10 µM | GI50 (HCC1954): 3.1 µM | GI50 (MDA-MB-468): 140 nM

O=C1Nc2ccc(O)cc2/C1=C\c1ccc2c(/C=C/c3ccncc3)n[nH]c2c1
IC50 [1]: > 10 µM | GI50 (MCF7): > 50000 nM | IC50 [2]: > 10 µM | IC50 [3]: 0.9 nM | Papp [5]: 4 ×10⁻⁶ cm/s | IC50 [4]: > 10 µM | GI50 (HCC1954): > 50 µM | GI50 (MDA-MB-468): 730 nM | GI50 (SK-BR-3): > 50 µM

O=C1Nc2ccccc2/C1=C\c1ccc2c(/C=C/c3ccccc3)n[nH]c2c1
GI50 (MDA-MB-231): > 50 µM | IC50 [1]: > 10 µM | GI50 (MCF7): 5200 nM | IC50 [2]: > 10 µM | IC50 [3]: 42 nM | IC50 [4]: > 10 µM | GI50 (MDA-MB-468): 4400 nM | GI50 (SK-BR-3): 12 µM

COc1ccc2c(c1)/C(=C\c1ccc3c(/C=C/c4ccc(CN(C)C)cc4)n[nH]c3c1)C(=O)N2
GI50 (MDA-MB-231): 0.01 µM | IC50 [1]: > 10 µM | GI50 (MCF7): < 10 nM | IC50 [2]: > 10 µM | IC50 [3]: 0.32 nM | IC50 [4]: > 10 µM | GI50 (HCC1954): 1.4 µM | GI50 (MDA-MB-468): 30 nM | GI50 (SK-BR-3): 0.03 µM

COc1cc(/C=C2\C(=O)Nc3ccc(Br)cc32)cc(Cl)c1O
IC50 [1]: 3.6 µM | IC50 [3]: 860 nM

COc1cc(/C=C2\C(=O)N(C)c3ccc(Br)cc32)cc(Cl)c1O
IC50 [1]: > 10 µM | IC50 [3]: 6100 nM

COc1cc(/C=C2\C(=O)Nc3ccc(Br)cc32)cc(Br)c1OC
IC50 [1]: > 10 µM | IC50 [3]: 13000 nM

O=C1Nc2ccccc2/C1=C/c1cccc(O)c1
IC50 [1]: 25 µM | IC50 [3]: 860 nM

O=C1Nc2ccccc2/C1=C/c1ccccc1O
IC50 [1]: 29 µM | IC50 [3]: 6100 nM

O=C1Nc2ccc(Br)cc2/C1=C/c1ccc(O)c(O)c1
IC50 [1]: > 10 µM | IC50 [3]: 13000 nM

O=C1Nc2ccccc2/C1=C\c1ccc2[nH]nnc2c1
IC50 [1]: 29 µM | IC50 [2]: > 10 µM | IC50 [3]: 2200 nM | IC50 [4]: 8.9 µM

O=C1Nc2ccccc2/C1=C/c1ccc2[nH]ncc2c1
IC50 [1]: 20 µM | IC50 [2]: 11 µM | IC50 [3]: 390 nM | IC50 [4]: 1.9 µM

O=C1Nc2ccccc2/C1=C\c1ccc2cn[nH]c2c1
IC50 [1]: 24 µM | IC50 [2]: > 10 µM | IC50 [4]: 5.7 µM

O=C1Nc2ccc(F)cc2/C1=C\c1ccc2cn[nH]c2c1
IC50 [1]: 15 µM | IC50 [3]: 60 nM | IC50 [4]: 4.4 µM

O=C1Nc2ccc(F)cc2/C1=C/c1ccc2cn[nH]c2c1
IC50 [1]: 15 µM | IC50 [2]: 24 µM | IC50 [3]: 240 nM | IC50 [4]: > 10 µM

O=C1Nc2ccc(Cl)cc2/C1=C\c1ccc2cn[nH]c2c1
IC50 [1]: > 10 µM | IC50 [2]: > 10 µM | IC50 [3]: 54 nM | IC50 [4]: > 10 µM

O=C1Nc2cc(Cl)ccc2/C1=C\c1ccc2cn[nH]c2c1
IC50 [1]: 26 µM | IC50 [2]: > 10 µM | IC50 [3]: 1300 nM | IC50 [4]: > 10 µM

COc1ccc2c(c1)/C(=C\c1ccc3cn[nH]c3c1)C(=O)N2
IC50 [1]: 10 µM | IC50 [2]: < 10 µM | IC50 [3]: 47 nM | IC50 [4]: < 10 µM

CNC(=O)c1ccc2c(c1)/C(=C\c1ccc3cn[nH]c3c1)C(=O)N2
IC50 [1]: 49 µM | IC50 [3]: 10000 nM

CC(=O)Nc1ccc2c(c1)/C(=C\c1ccc3cn[nH]c3c1)C(=O)N2
IC50 [1]: > 10 µM | IC50 [2]: > 10 µM | IC50 [3]: 6300 nM | IC50 [4]: 10 µM

CC(=O)Nc1ccc2c(c1)NC(=O)/C2=C/c1ccc2cn[nH]c2c1
IC50 [1]: > 10 µM | IC50 [2]: > 10 µM | IC50 [3]: 1200 nM | IC50 [4]: 10 µM

O=C1Nc2ccccc2/C1=C/c1ccc(O)cc1
IC50 [1]: 25 µM | IC50 [3]: 230 nM

O=C1Nc2ccc(I)cc2/C1=C/c1cc(Br)c(O)c(Br)c1
IC50 [1]: 4.6 µM | IC50 [3]: 230 nM

CNC(=O)c1ccccc1Sc1ccc2c(/C=C/c3ccccn3)n[nH]c2c1 [AXITINIB]
GI50 (HCC1954): 2.7 µM | GI50 (MDA-MB-468): 1300 nM
